Among the data in PubChem BioAssay (NCI) are TGI values, retold here.

What all share (assay): growth of human tumour cells (NCI), 48 h
In experiment [1] the test system is A498 renal.
In experiment [2] the test system is CCRF-CEM leukemia.
Experiment [3] relates to DU-145 prostate.
Experiment [4] concerns HCT-15 colon.
The subject of experiment [5] is K-562 leukemia.
Experiment [6] deals with LOX IMVI melanoma.
For experiment [7], the system named is SF-295 CNS.
The subject of experiment [8] is SK-MEL-5 melanoma.
Experiment [9] relates to SNB-19 CNS.
The test system of experiment [10] is UACC-257 melanoma.

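Five concentrations, 48 hours, 96-well plates. The concentration for full growth arrest is given as TGI.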

For `CCOC1CC(=O)c2c(Br)sc(Br)c21` (stereo not given), the TGI in experiment [1] amounted to 83.3 µM; in experiment [2], 50.8 µM; in experiment [3] it was 32.5 µM; in [4], 41.9 µM; in experiment [5] it was 41.5 µM; in experiment [6], 42.2 µM. Besides, the TGI was 77.4 µM in experiment [7], greater than 100 µM in [8], 51.9 µM in experiment [9] and 32.2 µM in experiment [10].

As for `O=C(CN1CCCCC1)CC(O)(C(F)(F)F)C(F)(F)F`, the TGI in experiment [1], in experiment [2], in experiment [3], in [4], in experiment [5] and in [6] was greater than 100 µM each time. In addition, the TGI in experiment [7], in experiment [8], in experiment [9] and in experiment [10] was greater than 100 µM in each case.

`O=c1cc(/C=C/c2ccc(O)c(O)c2)oc(/C=C/c2ccc(O)c(O)c2)c1`: the TGI in [1] is 14.4 µM; in [2] it was 7.74 µM; in experiment [3], 12.8 µM; in experiment [4] it was 27.6 µM; in experiment [5], greater than 20.7 µM; in experiment [6], greater than 25.2 µM. For the same molecule, the TGI came to 22.7 µM in [7], 13.2 µM in experiment [8], 18.2 µM in [9] and 17.8 µM in experiment [10].

For `O=C1c2ccccc2CN1c1ccc(O)cc1`, the TGI in experiment [1], in experiment [2], in [3], in experiment [4], in [5] and in experiment [6] was greater than 100 µM each time. In addition, the TGI in experiment [7], in experiment [8], in experiment [9] and in experiment [10] was greater than 100 µM each time.

`O=[N+]([O-])C(=C(N1CCCCC1)N1CCCCC1)/C(Cl)=C(\Cl)Br`: the TGI is 42.2 µM in [1]; 42.4 µM in experiment [2]; greater than 100 µM in [3]; 54.1 µM in experiment [4]; 46.2 µM in experiment [5]; 44.9 µM in experiment [6]. The TGI in experiment [7] was greater than 100 µM; in [8], 46 µM; in experiment [9] it was 87.1 µM; in experiment [10] it was 61.6 µM.

Consider `O=C1CCSSCCC(=O)NCCN1`, for which the TGI in experiment [1], in [2], in experiment [3], in experiment [4], in experiment [5] and in experiment [6] was greater than 100 µM throughout. In addition, the TGI in [7], in experiment [8], in [9] and in experiment [10] was greater than 100 µM in each case.

With `C/C(N=Nc1nc2ccccc2s1)=C1/C=CC=CN1O`, the TGI in experiment [1], in experiment [2], in [3], in experiment [4], in [5] and in experiment [6] was greater than 100 µM each time. Also, the TGI in experiment [7] was 3.72 µM; in [8] it was greater than 100 µM; in experiment [9], greater than 100 µM; in [10], greater than 100 µM.

For `CC(C)=CCc1c2c(c3occ(-c4ccc(O)c(O)c4)c(=O)c3c1O)C=CC(C)(C)O2`, the TGI in experiment [1] came out at 29 µM; in experiment [2] it was 2.71 µM; in experiment [3], 9.32 µM; in experiment [4], 5.35 µM; in experiment [5], 5.12 µM; in experiment [6] it was 5.22 µM. For the same molecule, the TGI was found to be 12.8 µM in [7], 7.72 µM in experiment [8], 5.02 µM in experiment [9] and 4.89 µM in [10].

With `CC(=O)OC(C)c1cc2c(s1)C(=O)c1sccc1C2=O` (stereo not given), the TGI in experiment [1] is 4.59 µM; in experiment [2] it was greater than 100 µM; in [3], 0.56 µM; in experiment [4], 2.38 µM; in experiment [5], greater than 100 µM; in [6], greater than 100 µM. Also, the TGI in experiment [7] came to 2.56 µM; in experiment [8] it was 0.32 µM; in experiment [9] it was 2.82 µM; in experiment [10], 0.441 µM.

Take `CC1(C)O[C@@H]2COC(=O)[C@@H]2O1`: the TGI in experiment [1], in [2], in [3], in experiment [4], in experiment [5] and in [6] was greater than 100 µM throughout. Further, the TGI in experiment [7], in experiment [8], in experiment [9] and in experiment [10] was greater than 100 µM each time.

For `CC(=O)NS(=O)(=O)c1ccc(NC(=O)c2c3ccccc3nc3ccccc23)cc1`, the TGI in [1], in experiment [2], in experiment [3], in [4], in experiment [5] and in experiment [6] was greater than 100 µM each time. Further, the TGI in experiment [7], in [8], in experiment [9] and in experiment [10] was greater than 100 µM in each case.

On to `COc1cc2c(cc1OCCCCOc1cc(-c3ccc(F)cc3)nc(C)n1)N=C[C@@H]1CCCN1C2=O`, for which the TGI was found to be 4.6 µM in experiment [1]; 3.17 µM in experiment [2]; 50 µM in experiment [3]; 2.09 µM in experiment [4]; 9.5 µM in [5]; 0.663 µM in [6]. Besides, the TGI came out at 2.26 µM in [7], 1.44 µM in [8], 4.75 µM in [9] and 1.88 µM in experiment [10].

As to `C[n+]1c(-c2ccccc2)cc2/c(=C\c3ccc([N+](=O)[O-])cc3)c3ccccc3n21`, the TGI was greater than 100 µM in experiment [1]; 8.04 µM in experiment [2]; 35.3 µM in experiment [3]; greater than 100 µM in [4]; greater than 100 µM in [5]; 17.6 µM in [6]. Moreover, the TGI in experiment [7] is 21.4 µM; in experiment [8] it was greater than 19.7 µM; in experiment [9] it was greater than 36.1 µM; in experiment [10], greater than 60.8 µM.

For `Cc1cc(C)c2c(=O)n(CN3CC4Nc5ccccc5C4C3)sc2n1` (stereo not given), the TGI was greater than 100 µM in experiment [1]; greater than 100 µM in experiment [2]; 40.9 µM in [3]; 44.3 µM in experiment [4]; 92.7 µM in experiment [5]; 48.5 µM in experiment [6]. Further, the TGI in experiment [7] is greater than 100 µM; in experiment [8] it was greater than 100 µM; in experiment [9], greater than 100 µM; in [10] it was 32.2 µM.
